Earlier results, collected in patent US12303531B2, “Molecular complex assembly particles comprising bis-R1,R2-dithiocarbamate-metal complex and a ligand, method of preparation and use thereof” (priority 2018, dated 2025).

SMILES: CCN(CC)C(=S)[S-].CCN(CC)C(=S)[S-].[Cu+2] [bis(diethyldithiocarbamate)copper(II)]
- solubility constant in water: in the range of nanograms per litre
